Values quoted from earlier work, collected in PMC4177305 (ChemMedChem, 2014).

Columns and labels:
[1] = in humans
[2] = tested on: human serum albumin (HSA); conditions: displaces site II ligands rather than site I ligands
human serum albumin = human serum albumin (Homo sapiens, UniProt P02768); conditions: reported affinity of MS-325 to human serum albumin
Chain of human serum albumin (P02768 25-609): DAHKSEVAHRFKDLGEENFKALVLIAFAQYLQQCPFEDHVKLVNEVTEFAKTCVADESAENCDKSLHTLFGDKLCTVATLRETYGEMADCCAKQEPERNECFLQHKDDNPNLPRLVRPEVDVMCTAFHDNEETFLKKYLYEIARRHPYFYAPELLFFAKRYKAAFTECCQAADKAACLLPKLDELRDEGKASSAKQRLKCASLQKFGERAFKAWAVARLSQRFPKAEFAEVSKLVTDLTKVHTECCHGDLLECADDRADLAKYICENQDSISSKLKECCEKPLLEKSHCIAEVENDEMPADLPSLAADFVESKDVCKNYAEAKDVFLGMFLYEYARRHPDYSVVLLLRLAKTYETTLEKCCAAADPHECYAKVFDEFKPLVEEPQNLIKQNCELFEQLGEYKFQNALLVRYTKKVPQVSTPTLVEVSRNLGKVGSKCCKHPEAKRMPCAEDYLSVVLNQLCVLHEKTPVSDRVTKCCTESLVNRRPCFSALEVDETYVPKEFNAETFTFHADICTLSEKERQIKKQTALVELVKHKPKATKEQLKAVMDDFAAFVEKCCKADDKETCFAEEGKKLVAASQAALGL

O=C([O-])CN(CCN(CC(=O)[O-])CC(COP(=O)([O-])OC1CCC(c2ccccc2)(c2ccccc2)CC1)N(CC(=O)[O-])CC(=O)[O-])CC(=O)[O-].[Gd+3].[Na+].[Na+].[Na+] (stereo not drawn) [MS-325, gadofosveset trisodium]
intravascular half-life [1]: 18.5 ± 3 h
albumin binding site [2]: binds primarily to site II
Kd (human serum albumin): 164 µM
